Measurements published in paper PMC12621043, “Un-LOK-ing a New Approach for Conformational Selective Targeting of STK10 (LOK)” (ACS Medicinal Chemistry Letters, 2025).

How the values were obtained:
STK10 = target: T1, STK10 (Homo sapiens, UniProt O94804); conditions: Figure 1, previous published dual STK10/SLK inhibitors, ref Serafim et al.; read-out: STK10 in vitro IC50; cited from earlier work
T1 construct: purchased in-house DSF kinase panel (SGC-style construct names; the trailing letter is the construct ID)
T1 sequence (O94804 18-317 limits assumed): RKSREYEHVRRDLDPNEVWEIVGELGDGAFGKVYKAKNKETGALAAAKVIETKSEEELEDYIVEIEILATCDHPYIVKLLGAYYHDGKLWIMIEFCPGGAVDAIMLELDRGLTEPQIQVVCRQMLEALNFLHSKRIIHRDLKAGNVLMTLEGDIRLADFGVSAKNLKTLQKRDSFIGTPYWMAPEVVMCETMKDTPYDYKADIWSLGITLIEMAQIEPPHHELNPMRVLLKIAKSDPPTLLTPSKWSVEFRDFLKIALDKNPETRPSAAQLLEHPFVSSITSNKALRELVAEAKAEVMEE

SLK = SLK (Homo sapiens, UniProt Q9H2G2); assay: Surface plasmon resonance (SPR); assay type: binding; conditions: kinetic fit, Figure S3

Kd (SLK) [nM]	Kd SLK (SPR) (SLK)	Structure (SMILES)	IC50 (STK10) [nM]
–	–	COc1ccc(CNC(=O)Nc2ccc3cc2OCCOCCNc2ccn4ncc-3c4n2)cc1 [compound 31]	12
985 ± 855	mainly nonspecific binding	Cc1cc(Cl)ccc1CNC(=O)Nc1ccc2cc1OCCOCCNc1ccn3ncc-2c3n1 [compound 23]	–
